Laboratory results taken from the supplement of paper PMC11451515.

Tested on: NOMO1
Experiment: cell viability relative to DMSO control; higher = less cytotoxic
Conditions: 48 h
Summary of the method: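 Library compounds in DMSO were pin-dosed into 1536-well plates (5 μl) holding NOMO1 or SEM (500 cells/well) or P12-Ichikawa (1000 cells/well) leukemia cells, across an 11-point threefold series of 47 μM to 0.79 nM. Each cell line had been adapted for at least four passages in each medium. CellTiter-Glo One luminescence was read after 48 h at 37°C. Viability is the per-plate percentage relative to DMSO wells, with cell-free wells as background.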

[1] = HPLM + 10% dialyzed FBS, 0.000781 µM
[2] = HPLM + 10% dialyzed FBS, 0.00234 µM
[3] = HPLM + 10% dialyzed FBS, 0.00702 µM
[4] = HPLM + 10% dialyzed FBS, 0.0211 µM
[5] = HPLM + 10% dialyzed FBS, 0.0632 µM
[6] = HPLM + 10% dialyzed FBS, 0.19 µM
[7] = HPLM + 10% dialyzed FBS, 0.569 µM
[8] = HPLM + 10% dialyzed FBS, 1.71 µM
[9] = HPLM + 10% dialyzed FBS, 5.12 µM
[10] = HPLM + 10% dialyzed FBS, 15.4 µM
[11] = HPLM + 10% dialyzed FBS, 46.1 µM
[12] = RPMI 5 mM glucose + 10% FBS, 0.000781 µM
[13] = RPMI 5 mM glucose + 10% FBS, 0.00234 µM
[14] = RPMI 5 mM glucose + 10% FBS, 0.00702 µM
[15] = RPMI 5 mM glucose + 10% FBS, 0.0211 µM
[16] = RPMI 5 mM glucose + 10% FBS, 0.0632 µM
[17] = RPMI 5 mM glucose + 10% FBS, 0.19 µM
[18] = RPMI 5 mM glucose + 10% FBS, 0.569 µM
[19] = RPMI 5 mM glucose + 10% FBS, 1.71 µM
[20] = RPMI 5 mM glucose + 10% FBS, 5.12 µM
[21] = RPMI 5 mM glucose + 10% FBS, 15.4 µM
[22] = RPMI 5 mM glucose + 10% FBS, 46.1 µM
[23] = RPMI 5 mM glucose + 10% dialyzed FBS, 0.000781 µM
[24] = RPMI 5 mM glucose + 10% dialyzed FBS, 0.00234 µM
[25] = RPMI 5 mM glucose + 10% dialyzed FBS, 0.00702 µM
[26] = RPMI 5 mM glucose + 10% dialyzed FBS, 0.0211 µM
[27] = RPMI 5 mM glucose + 10% dialyzed FBS, 0.0632 µM
[28] = RPMI 5 mM glucose + 10% dialyzed FBS, 0.19 µM
[29] = RPMI 5 mM glucose + 10% dialyzed FBS, 0.569 µM
[30] = RPMI 5 mM glucose + 10% dialyzed FBS, 1.71 µM
[31] = RPMI 5 mM glucose + 10% dialyzed FBS, 5.12 µM
[32] = RPMI 5 mM glucose + 10% dialyzed FBS, 15.4 µM
[33] = RPMI 5 mM glucose + 10% dialyzed FBS, 46.1 µM

## CN1CCN(C2=Nc3cc(Cl)ccc3Nc3ccccc32)CC1
[1]
  cell viability: 103%
[2]
  cell viability: 100%
[3]
  cell viability: 110%
[4]
  cell viability: 111%
[5]
  cell viability: 116%
[6]
  cell viability: 119%
[7]
  cell viability: 113%
[8]
  cell viability: 132%
[9]
  cell viability: 112%
[10]
  cell viability: 106%
[11]
  cell viability: 59.3%
[12]
  cell viability: 98.6%
[13]
  cell viability: 94.3%
[14]
  cell viability: 102%
[15]
  cell viability: 98.4%
[16]
  cell viability: 107%
[17]
  cell viability: 101%
[18]
  cell viability: 103%
[19]
  cell viability: 96.3%
[20]
  cell viability: 106%
[21]
  cell viability: 106%
[22]
  cell viability: 102%
[23]
  cell viability: 87.5%
[24]
  cell viability: 99.6%
[25]
  cell viability: 99.7%
[26]
  cell viability: 90.1%
[27]
  cell viability: 115%
[28]
  cell viability: 106%
[29]
  cell viability: 110%
[30]
  cell viability: 99.3%
[31]
  cell viability: 103%
[32]
  cell viability: 97.9%
[33]
  cell viability: 78.4%

## CCN(CC)CCOc1ccc(/C(=C(\Cl)c2ccccc2)c2ccccc2)cc1
[1]
  cell viability: 124%
[2]
  cell viability: 123%
[3]
  cell viability: 130%
[4]
  cell viability: 136%
[5]
  cell viability: 150%
[6]
  cell viability: 134%
[7]
  cell viability: 130%
[8]
  cell viability: 134%
[9]
  cell viability: 109%
[10]
  cell viability: 122%
[11]
  cell viability: 102%

## S=C(NCc1ccc2c(c1)OCO2)N1CCN(c2ncnc3c2oc2ccccc23)CC1
[1]
  cell viability: 110%
[2]
  cell viability: 113%
[3]
  cell viability: 124%
[4]
  cell viability: 104%
[5]
  cell viability: 105%
[6]
  cell viability: 98.2%
[7]
  cell viability: 113%
[8]
  cell viability: 105%
[9]
  cell viability: 75.7%
[10]
  cell viability: 64.1%
[11]
  cell viability: 9.67%
[12]
  cell viability: 117%
[13]
  cell viability: 120%
[14]
  cell viability: 116%
[15]
  cell viability: 110%
[16]
  cell viability: 114%
[17]
  cell viability: 111%
[18]
  cell viability: 109%
[19]
  cell viability: 98.2%
[20]
  cell viability: 104%
[21]
  cell viability: 80%
[22]
  cell viability: 26.2%
[23]
  cell viability: 116%
[24]
  cell viability: 106%
[25]
  cell viability: 119%
[26]
  cell viability: 107%
[27]
  cell viability: 112%
[28]
  cell viability: 107%
[29]
  cell viability: 112%
[30]
  cell viability: 97.1%
[31]
  cell viability: 95.8%
[32]
  cell viability: 89%
[33]
  cell viability: 48.8%

## O=C(C=CC#Cc1cccc(N[S+](=O)([O-])c2ccccc2)c1)NO
[1]
  cell viability: 116%
[2]
  cell viability: 121%
[3]
  cell viability: 116%
[4]
  cell viability: 131%
[5]
  cell viability: 137%
[6]
  cell viability: 142%
[7]
  cell viability: 126%
[8]
  cell viability: 107%
[9]
  cell viability: 36.1%
[10]
  cell viability: 7.6%
[11]
  cell viability: 3.17%
[12]
  cell viability: 124%
[13]
  cell viability: 123%
[14]
  cell viability: 109%
[15]
  cell viability: 138%
[16]
  cell viability: 119%
[17]
  cell viability: 129%
[18]
  cell viability: 135%
[19]
  cell viability: 117%
[20]
  cell viability: 41.9%
[21]
  cell viability: 7.03%
[22]
  cell viability: 3.62%

## Cc1c(C)n(Cc2ccc(-c3ccccc3C(=O)O)cc2)c2ccc(C(=O)N[C@@H](C)c3ccc([N+](=O)[O-])cc3)cc12
[1]
  cell viability: 92.6%
[2]
  cell viability: 107%
[3]
  cell viability: 106%
[4]
  cell viability: 103%
[5]
  cell viability: 115%
[6]
  cell viability: 116%
[7]
  cell viability: 102%
[8]
  cell viability: 86.8%
[9]
  cell viability: 86%
[10]
  cell viability: 32.2%
[11]
  cell viability: 35.1%
[12]
  cell viability: 118%
[13]
  cell viability: 107%
[14]
  cell viability: 111%
[15]
  cell viability: 126%
[16]
  cell viability: 105%
[17]
  cell viability: 112%
[18]
  cell viability: 124%
[19]
  cell viability: 101%
[20]
  cell viability: 101%
[21]
  cell viability: 18.7%
[22]
  cell viability: 12.3%
[23]
  cell viability: 108%
[24]
  cell viability: 121%
[25]
  cell viability: 104%
[26]
  cell viability: 109%
[27]
  cell viability: 114%
[28]
  cell viability: 107%
[29]
  cell viability: 125%
[30]
  cell viability: 106%
[31]
  cell viability: 111%
[32]
  cell viability: 19.2%
[33]
  cell viability: 16.2%

## Cc1nn(Cc2ccccc2Cl)c(C)c1CN(C)CC(O)COc1ccc(Cl)cc1 (stereo unspecified)
[1]
  cell viability: 106%
[2]
  cell viability: 101%
[3]
  cell viability: 98%
[4]
  cell viability: 97.7%
[5]
  cell viability: 99.7%
[6]
  cell viability: 103%
[7]
  cell viability: 108%
[8]
  cell viability: 106%
[9]
  cell viability: 85.8%
[10]
  cell viability: 83.1%
[11]
  cell viability: 22.5%
[12]
  cell viability: 100%
[13]
  cell viability: 92.9%
[14]
  cell viability: 89.1%
[15]
  cell viability: 90.4%
[16]
  cell viability: 90.5%
[17]
  cell viability: 94.1%
[18]
  cell viability: 99.5%
[19]
  cell viability: 93.7%
[20]
  cell viability: 90.8%
[21]
  cell viability: 85.6%
[22]
  cell viability: 34.5%
[23]
  cell viability: 94.7%
[24]
  cell viability: 101%
[25]
  cell viability: 110%
[26]
  cell viability: 101%
[27]
  cell viability: 106%
[28]
  cell viability: 99.4%
[29]
  cell viability: 100%
[30]
  cell viability: 94.4%
[31]
  cell viability: 83.9%
[32]
  cell viability: 75.3%
[33]
  cell viability: 27.2%

## CNC(=O)c1ccc2cc(C3(O)CCn4cncc43)ccc2c1 (stereo unspecified)
[1]
  cell viability: 124%
[2]
  cell viability: 131%
[3]
  cell viability: 121%
[4]
  cell viability: 127%
[5]
  cell viability: 143%
[6]
  cell viability: 118%
[7]
  cell viability: 126%
[8]
  cell viability: 137%
[9]
  cell viability: 113%
[10]
  cell viability: 98.1%
[11]
  cell viability: 112%
[12]
  cell viability: 105%
[13]
  cell viability: 117%
[14]
  cell viability: 103%
[15]
  cell viability: 120%
[16]
  cell viability: 110%
[17]
  cell viability: 96.8%
[18]
  cell viability: 102%
[19]
  cell viability: 96.8%
[20]
  cell viability: 108%
[21]
  cell viability: 99.7%
[22]
  cell viability: 114%

## CNc1nc(Nc2ccc(C(=O)N3CCOCC3)cc2OC)ncc1Cl
[12]
  cell viability: 103%
[13]
  cell viability: 121%
[14]
  cell viability: 119%
[15]
  cell viability: 109%
[16]
  cell viability: 106%
[17]
  cell viability: 114%
[18]
  cell viability: 111%
[19]
  cell viability: 112%
[20]
  cell viability: 99.8%
[21]
  cell viability: 106%
[22]
  cell viability: 90.9%

## CC(C)c1noc(N2CCC(COc3ccc(-c4ccc([S+](C)(=O)[O-])cc4)nc3)CC2)n1
[1]
  cell viability: 122%
[2]
  cell viability: 104%
[3]
  cell viability: 117%
[4]
  cell viability: 103%
[5]
  cell viability: 122%
[6]
  cell viability: 108%
[7]
  cell viability: 120%
[8]
  cell viability: 109%
[9]
  cell viability: 94.3%
[10]
  cell viability: 109%
[11]
  cell viability: 116%
[12]
  cell viability: 114%
[13]
  cell viability: 113%
[14]
  cell viability: 122%
[15]
  cell viability: 118%
[16]
  cell viability: 121%
[17]
  cell viability: 114%
[18]
  cell viability: 122%
[19]
  cell viability: 104%
[20]
  cell viability: 105%
[21]
  cell viability: 110%
[22]
  cell viability: 100%
[23]
  cell viability: 118%
[24]
  cell viability: 122%
[25]
  cell viability: 118%
[26]
  cell viability: 122%
[27]
  cell viability: 117%
[28]
  cell viability: 128%
[29]
  cell viability: 119%
[30]
  cell viability: 109%
[31]
  cell viability: 116%
[32]
  cell viability: 113%
[33]
  cell viability: 107%
